Assay results published in US10738028B2, “Spiro three-membered ring, spiro five-membered ring peptide deformylase inhibitor and use thereof in antibacteria and anti-tumor” (priority 2016, dated 2020).
Values after ≈ are worked out from the molar mass of the structure shown.

Legend:
[1] = system: Enterococcus faecalis (EFA); assay: MIC, two-fold agar dilution (CLSI), clinical isolates; format: cell-based
Method in brief: (§1)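 Susceptibility was tested using CLSI two-fold agar dilution against the strains examined.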

[2] = system: Escherichia coli (including ESBLs, non-ESBLs); assay: as above; format: cell-based
Method in brief: as §1

[3] = system: methicillin-resistant Staphylococcus aureus (MRSA); assay: as above; format: cell-based
Method in brief: as §1

[4] = system: methicillin-resistant Staphylococcus epidermidis (MRSE); assay: as above; format: cell-based
Method in brief: as §1

[5] = system: methicillin-sensitive Staphylococcus aureus (MSSA); assay: as above; format: cell-based
Method in brief: as §1

[6] = system: methicillin-sensitive Staphylococcus epidermidis (MSSE); assay: as above; format: cell-based
Method in brief: as §1

[7] = system: HCT-116 colorectal cancer cell line; assay: CCK-8 proliferation inhibition; format: cell-based; settings: Homo sapiens, HCT-116, 72 h, read-out: HCT116 inhibition rate/%
Method in brief: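 Cells seeded at 2000 cells/well, cultured overnight at 37 °C, 5% CO2, then exposed to compound (DMSO; control 1‰ DMSO) for 72 h in McCoy's 5A with 10% newborn bovine serum. Viability read with 1:10 diluted CCK-8.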

[8] = system: methemoglobin in blood samples of three healthy volunteers; assay: Toxicity on methemoglobin in vitro (whole blood with S9 and NADPH, absorbance at 630 nm); format: cell-based, human; settings: 500 μM compound; whole blood + S9 + NADPH; 5 hours at 37° C.
Method in brief: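 Fresh EDTA whole blood from three healthy volunteers incubated 5 h at 37 °C with human liver S9 (2 mg/mL), NADPH-generating system and compound at 500 μM final. Lysed in 1% Triton X-100; MetHb % from 630 nm absorbance relative to ferricyanide-oxidized blood.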

[9] = system: the test strains; assay: MIC against the test strains (strain not given); format: cell-based; settings: read-out: MIC (azole amide bioisosteres)
Excerpt: 1. The invention adopts the two-fold agar dilution method recommended by the operating procedure of antimicrobial susceptibility testing set by American Clinical and Laboratory Standards Institute (CLSI) to determine the Minimum Inhibitory Concentration (MIC) of the test samples against the tested strains.

[10] = strain printed MRSA 14-1 (second line of that name, r23, before MRSE 14-2)

Structure (SMILES) | MIC (anti-bacterial activity) ([1]; strain EFA 14-1) [µg/mL] | MIC (anti-bacterial activity) ([1]; strain EFA 14-2) [µg/mL] | MIC (anti-bacterial activity) ([1]; strain EFA 14-3) [µg/mL] | MIC (anti-bacterial activity) ([1]; strain EFA 14-5) [µg/mL] | MIC (anti-bacterial activity) ([2]; strain ECO+ 14-1) [µg/mL] | MIC (anti-bacterial activity) ([2]; strain ECO+ 14-2) [µg/mL] | MIC (anti-bacterial activity) ([2]; strain ECO− 14-1) [µg/mL] | MIC (anti-bacterial activity) ([2]; strain ECO− 14-2) [µg/mL] | MIC (anti-bacterial activity) ([3]; strain MRSA 14-1) [µg/mL] | MIC (anti-bacterial activity) ([3]; strain MRSA 14-2) [µg/mL] | MIC (anti-bacterial activity) ([3]; strain MRSA 14-4) [µg/mL] | MIC (anti-bacterial activity) ([3]; strain MRSA 14-5) [µg/mL] | MIC (anti-bacterial activity) [3, 10] [µg/mL] | MIC (anti-bacterial activity) ([4]; strain MRSE 14-2) [µg/mL] | MIC (anti-bacterial activity) ([4]; strain MRSE 14-3) [µg/mL] | MIC (anti-bacterial activity) ([4]; strain MRSE 14-4) [µg/mL] | MIC (anti-bacterial activity) ([5]; strain MSSA 14-1) [µg/mL] | MIC (anti-bacterial activity) ([5]; strain MSSA 14-2) [µg/mL] | MIC (anti-bacterial activity) ([5]; strain MSSA 14-3) [µg/mL] | MIC (anti-bacterial activity) ([5]; strain MSSA 14-4) [µg/mL] | other results
CCCC[C@H](CN(O)C=O)C(=O)N1CC2(CC2)C[C@H]1c1nc2ccccc2[nH]1 [Example 10, N—((R)-2-((S)-6-(1H-benzimidazol-2-yl)-5-azaspiro[2.4]heptane-5-carbonyl)hexyl)-N-hydroxyformamide] | 8 (≈ 20.8 µM) | 8 (≈ 20.8 µM) | 8 (≈ 20.8 µM) | 64 (≈ 166 µM) | 0.5 (≈ 1.3 µM) | 32 (≈ 83.2 µM) | 32 (≈ 83.2 µM) | 32 (≈ 83.2 µM) | 1 (≈ 2.6 µM) | 2 (≈ 5.2 µM) | 2 (≈ 5.2 µM) | 0.5 (≈ 1.3 µM) | 1 (≈ 2.6 µM) | 1 (≈ 2.6 µM) | 0.5 (≈ 1.3 µM) | 1 (≈ 2.6 µM) | 2 (≈ 5.2 µM) | 2 (≈ 5.2 µM) | 2 (≈ 5.2 µM) | 2 (≈ 5.2 µM) | MIC (anti-bacterial activity) ([6]; strain MSSE 14-1): 0.5 µg/mL (≈ 1.3 µM); MIC (anti-bacterial activity) ([6]; strain MSSE 14-2): 2 µg/mL (≈ 5.2 µM); MIC (anti-bacterial activity) ([6]; strain MSSE 14-3): 0.5 µg/mL (≈ 1.3 µM); MIC (anti-bacterial activity) ([6]; strain MSSE 14-4): 2 µg/mL (≈ 5.2 µM); inhibition at 30 µM [7]: 10%; MetHb % (n = 3) [8]: 1.12 ± 0.01%; MIC [9]: 0.5 to 2 µg/mL (≈ 1.3 to 5.2 µM)
CCCC[C@H](CN(O)C=O)C(=O)N1CC2(CC2)C[C@H]1c1nc(-c2cccnc2)no1 [Example 11, N-hydroxy-N—((R)-2-((S)-6-(3-(pyridin-3-yl)-1,2,4-oxadiazol-5-yl)-5-azaspiro[2.4]heptane-5-carbonyl)hexyl)carboxamide] | 2 (≈ 4.84 µM) | 2 (≈ 4.84 µM) | 2 (≈ 4.84 µM) | 2 (≈ 4.84 µM) | 1 (≈ 2.42 µM) | 32 (≈ 77.4 µM) | 64 (≈ 155 µM) | 64 (≈ 155 µM) | 0.5 (≈ 1.21 µM) | 0.5 (≈ 1.21 µM) | 0.5 (≈ 1.21 µM) | 0.5 (≈ 1.21 µM) | 0.25 (≈ 0.605 µM) | 0.25 (≈ 0.605 µM) | 0.125 (≈ 0.302 µM) | 0.5 (≈ 1.21 µM) | 0.5 (≈ 1.21 µM) | 0.5 (≈ 1.21 µM) | 0.5 (≈ 1.21 µM) | 0.5 (≈ 1.21 µM) | MIC (anti-bacterial activity) ([6]; strain MSSE 14-1): 0.125 µg/mL (≈ 0.302 µM); MIC (anti-bacterial activity) ([6]; strain MSSE 14-2): 0.5 µg/mL (≈ 1.21 µM); MIC (anti-bacterial activity) ([6]; strain MSSE 14-3): 0.125 µg/mL (≈ 0.302 µM); MIC (anti-bacterial activity) ([6]; strain MSSE 14-4): 0.5 µg/mL (≈ 1.21 µM); inhibition at 30 µM [7]: 17%; MetHb % (n = 3) [8]: 1.26 ± 0.07%; MIC [9]: 0.5 to 2 µg/mL (≈ 1.21 to 4.84 µM)
